From ChEMBL document CHEMBL1150506, “S-nitrosation of proteins by N-methyl-N-nitrosoanilines” (Bioorg Med Chem Lett, 1996)

How the values were obtained:
[1] = (§1) Pseudo-first order rate constant for inhibition of thiol-dependent papain enzyme
Papain = biological target: T1, Papain (Carica papaya, UniProt P00784); assay: as §1
T1 sequence (P00784 whole entry): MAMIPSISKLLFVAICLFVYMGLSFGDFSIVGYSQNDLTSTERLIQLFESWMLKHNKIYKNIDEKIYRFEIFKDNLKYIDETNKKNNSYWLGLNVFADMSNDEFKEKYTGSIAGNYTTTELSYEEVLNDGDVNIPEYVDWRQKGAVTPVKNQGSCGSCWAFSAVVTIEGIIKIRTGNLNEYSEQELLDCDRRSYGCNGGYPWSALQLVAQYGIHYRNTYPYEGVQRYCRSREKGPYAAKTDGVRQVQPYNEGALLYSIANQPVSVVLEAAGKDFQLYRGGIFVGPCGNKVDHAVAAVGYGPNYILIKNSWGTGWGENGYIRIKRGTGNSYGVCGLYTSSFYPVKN

## CN(N=O)c1ccc(O)cc1
[1]
  Ki: 0.009 min⁻¹

## CN(N=O)c1ccccc1[N+](=O)[O-]
Papain
  pseudo-first-order inhibition rate constant: 0.026 min⁻¹

## CN(N=O)c1cc(O)ccc1O [DEPHOSTATIN]
[1]
  Ki: 0.328 min⁻¹

## CN(N=O)c1ccccc1
Papain
  pseudo-first-order inhibition rate constant: 0.057 min⁻¹

## CN(N=O)c1cccc(O)c1
Papain
  pseudo-first-order inhibition rate constant: 0.036 min⁻¹

## CN(N=O)c1ccccc1O
Papain
  pseudo-first-order inhibition rate constant: 0.011 min⁻¹

## CN(N=O)c1ccc(Cl)cc1
Papain
  pseudo-first-order inhibition rate constant: 0.017 min⁻¹

## CN(C)c1ccc(N(C)N=O)cc1
[1]
  Ki: 0.243 min⁻¹
